Assay results as given in BindingDB's records for doi:10.1016/j.ejmech.2019.111921 (University of Kwazulu-Natal, 2020).

Assays:
Beta-glucuronidase [1] = target: T1, Beta-glucuronidase (Rattus norvegicus, UniProt P06760); experiment: Inhibition of degranulated rat neutrophils beta-glucuronidase
T1 sequence (P06760 whole entry): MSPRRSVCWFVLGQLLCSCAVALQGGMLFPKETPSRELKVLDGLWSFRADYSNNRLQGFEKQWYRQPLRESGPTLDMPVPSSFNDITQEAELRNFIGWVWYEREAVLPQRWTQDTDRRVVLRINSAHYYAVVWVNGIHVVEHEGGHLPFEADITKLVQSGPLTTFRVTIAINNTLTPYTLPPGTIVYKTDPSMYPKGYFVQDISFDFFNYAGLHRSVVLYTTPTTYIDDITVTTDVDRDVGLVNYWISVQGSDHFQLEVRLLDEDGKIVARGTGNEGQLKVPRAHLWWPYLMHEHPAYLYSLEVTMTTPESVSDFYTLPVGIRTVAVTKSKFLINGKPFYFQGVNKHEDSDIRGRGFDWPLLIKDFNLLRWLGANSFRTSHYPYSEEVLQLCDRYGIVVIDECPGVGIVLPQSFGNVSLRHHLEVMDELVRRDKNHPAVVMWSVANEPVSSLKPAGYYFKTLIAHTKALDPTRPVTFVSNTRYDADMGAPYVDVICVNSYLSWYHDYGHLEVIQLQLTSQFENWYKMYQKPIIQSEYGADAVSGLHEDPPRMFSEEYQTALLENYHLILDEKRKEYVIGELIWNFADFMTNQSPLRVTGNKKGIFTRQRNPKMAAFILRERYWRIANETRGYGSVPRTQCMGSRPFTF

Beta-glucuronidase [2] = target: T1, Beta-glucuronidase; experiment: Inhibition of degranulated rat peritoneal mast cells beta-glucuronidase
Beta-glucuronidase [3] = target: T2, Beta-glucuronidase (Homo sapiens, UniProt P08236); experiment: Inhibition of beta-glucuronidase (unknown origin)
T2 sequence (P08236 whole entry): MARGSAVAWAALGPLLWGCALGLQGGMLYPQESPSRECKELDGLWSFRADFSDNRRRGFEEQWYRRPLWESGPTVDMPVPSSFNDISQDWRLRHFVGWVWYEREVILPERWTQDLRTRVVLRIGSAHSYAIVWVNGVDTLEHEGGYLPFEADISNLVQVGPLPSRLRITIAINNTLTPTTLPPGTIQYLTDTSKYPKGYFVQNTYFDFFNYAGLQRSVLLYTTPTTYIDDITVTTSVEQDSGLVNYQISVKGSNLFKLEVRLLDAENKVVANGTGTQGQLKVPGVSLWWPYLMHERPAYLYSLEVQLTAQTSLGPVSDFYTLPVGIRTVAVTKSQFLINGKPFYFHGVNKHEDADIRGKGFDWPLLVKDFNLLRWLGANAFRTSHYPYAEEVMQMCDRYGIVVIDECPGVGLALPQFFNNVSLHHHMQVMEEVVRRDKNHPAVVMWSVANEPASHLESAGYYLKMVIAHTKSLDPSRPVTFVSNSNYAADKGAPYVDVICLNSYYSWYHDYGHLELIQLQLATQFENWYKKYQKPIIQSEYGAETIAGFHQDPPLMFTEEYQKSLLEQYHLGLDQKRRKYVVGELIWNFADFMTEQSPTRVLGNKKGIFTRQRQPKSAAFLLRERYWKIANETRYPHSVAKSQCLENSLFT

| IC50 (Beta-glucuronidase [1]) [µM] | IC50 (Beta-glucuronidase [2]) [µM] | IC50 (Beta-glucuronidase [3]) [µM] | Structure (SMILES) |
| --- | --- | --- | --- |
| 5.8 | – | – | C/C(=C/Cc1c(O)ccc(C(=O)/C=C/c2ccc(O)cc2)c1O)COC(=O)/C=C/c1ccc(O)cc1 [gemichalcones B] |
| 6.6 | 70 | – | COc1cc(/C=C/C(=O)OC/C(C)=C\Cc2c(O)ccc(C(=O)/C=C/c3ccc(O)cc3)c2O)ccc1O [Gemichalcone A] |
| – | – | 1640 | COc1cc([C@@H]2Oc3cc([C@H]4Oc5cc(O)cc(O)c5C(=O)[C@@H]4O)ccc3O[C@H]2CO)ccc1O [Silybin B] |
